Measured values published in PMC5374710, “Discovery of the first dual GSK3β inhibitor/Nrf2 inducer. A new multitarget therapeutic strategy for Alzheimer’s disease” (Scientific Reports, 2017).
Where two headings read alike, the source gives them in different places.

Experiments:
GSK3β [1] = molecular target: T1, GSK3β (Homo sapiens, UniProt P49841); details: cited from earlier work
T1 construct: purchased Promega V1991

SH-SY5Y cells [2] = assay: Neuroprotection against okadaic acid (tau hyperphosphorylation), MTT; type: cell-based; details: 1 μM, 24 h pre-incubation, 18 h co-incubation with OA 20 nM
SH-SY5Y cells [3] = assay: Cytotoxicity in SH-SY5Y neuroblastoma cell line (MTT); details: 24 h
Procedure: (§4) Viability was measured as MTT reduction in presence of increasing concentrations of derivatives. Values are expressed as LD50 calculated from dose-response curves of four different concentrations.
(§5) Cells were cultured in 48-well (SH-SY5Y, 1x10^5 cells per well) or 96-well plates (HepG2, 1x10^5 cells per well) for 24 h. […] Control cells were incubated with the same concentration of DMSO (0.1 % final concentration) without any drug.

Keap1 Kelch domain = molecular target: T2, Keap1 Kelch domain (Homo sapiens, UniProt Q14145); assay: Differential scanning fluorimetry assay; type: binding; details: ligand concentration 10 µM
T2 construct: A solution of the Keap1 Kelch domain protein (5 µM)
Procedure: A solution of the Keap1 Kelch domain protein (5 µM) and detection dye SYPRO® orange (5X) in DPBS at pH 7.4 was added onto a qPCR plate containing the compound inhibitor (10 µM, 10% final DMSO concentration, 40 µL final volume). The plate was sealed using an optical foil seal and covered with aluminum foil to protect the dye from light. The plate was then transferred to a plate centrifuge and spun down briefly (200 G, 1 min, room temperature) to remove any bubbles and collect the solution at the bottom of the wells. Following a 30 min incubation at room temperature, the plate was placed into a 7500 Real time PCR machine and the fluorescence intensity at an excitation of 465 nm and emission of 580 nm was recorded during a temperature scan from 25 °C to 95 °C with a temperature ramping rate of 1 °C/min. All measurements were run in triplicate. Life Technologies software was used to set up the run on 7500 Software v.2.0.0 and the initial data processing was carried out on Protein thermal shift solution software. The raw data were exported to MS Excel and analysis was performed using a custom script provided by the Structural Genomics Consortium Oxford.^18 The temperature range over which the protein unfolding occurred was selected and the maximum and minimum (at temperatures below the maximum intensity) fluorescence intensities within this range were determined. The processed data were fitted to the Boltzmann equation by non-linear regression using the Origin Pro software.

primary rat glial cells [4] = assay: ROS production in LPS-stimulated primary glial cultures (H2DCFDA); type: cell-based; details: Glial cell, 24 h pre-incubation, 18 h co-incubation with LPS, 3 h with fluorescent dye, read-out: IC50 ROS reduction
Text: (§1) Therefore, we envisaged the study of compounds 5a–t as potential anti-inflammatory agents. We used primary rat glial cells treated with lipopolysaccharide (LPS) to induce the production of nitrites and ROS as a model of glial activation. Nitrite production is directly proportional to the expression of the iNOS, that is over-expressed when LPS activates glial cells. ROS production is proportional to NOX activation after stimulation with LPS. Results are summarized in Table 2 as IC50s of nitrite production reduction and ROS production reduction. We have included sulforaphane as control in all experiments (see the Supporting Information).
Besides the increase in nitrite production, it is well known that LPS stimulation of microglia also induces the activation of NOX, which induces superoxide free radical production. In fact, this mechanism is synergistic with the expression of iNOS and the production of nitrites. In this respect, there is a body of evidence showing that NOX activation is a major contributor to ROS oxidative stress and neuronal death in AD[57][58]. […] In general, potency to reduce ROS production increased from ortho to para and meta as observed above.
(§2) Primary glial cells were cultured in bottom transparent 96-well black plates following standard protocol. Cells were pre-incubated with the corresponding compound at the selected concentrations, for 24 hours, and therafter, co-incubated with the corresponding compound and LPS (1 μM) during 18 h more. Then, treatments were removed and cells were loaded with the fluorescent probe 2′,7′-dichlorodihydrofluorescein diacetate (H2DCFDA) (10 μM) for 45 minutes in serum free glial culture medium. All experiments included cells treated with culture medium alone (basal). Cells were washed twice with culture medium and fluorescence intensity was recorded in a Fluostar Optima multiwall pate reader (BMG Labtech, Offenburg, Germany) at 485/520 nm as excitation and emission wavelengths respectively, each hour, during 3 hours period. Data were normalized with respect to basal conditions that were considered as 100%.
as §2, with “µM)” for “μM)”, “2',7'-dichlorodihydrofluorescein” for “2′,7′-dichlorodihydrofluorescein”
(§3) Mixed glial cultures were obtained from cerebral cortex of 2-5 day-old Sprague-Dawley rats. After removal of blood vessels and meninges, the forebrains were dissociated in DMEM/F12 medium. After mechanical dissociation, cells were plated (3x10^5 cells/ml) in DMEM/F12 medium with 20% fetal bovine serum (FBS) and 1 % penicillin/streptomycin (10,000 units), at 37 °C and in a 5 % CO2-supplemented air atmosphere. After 5 days, medium was substituted by DMEM/F12 medium with 10 % FBS. Cells were cultured for 7-10 days before treatment.

[5] = molecular target: T3, Nrf2-Keap1 protein-protein interaction (Homo sapiens, UniProt Q14145); assay: Fluorescence polarization assay of Nrf2-Keap1 interaction; type: binding; details: ligand concentration 10 µM; read-out: FP % Inhibition (± SEM)
T3 construct: a solution of the Keap1 Kelch domain (200 nM)
Procedure: Data are presented the means ± SEM of two experiments performed in triplicate.
The FP assay was carried out as previously described.^16,17 Inhibitors (10 µM) were plated onto untreated Corning® black 96 well plates containing a solution of the Keap1 Kelch domain (200 nM) and the fluorescent peptide FITC-β-DEETGEF-OH (1 nM) in Dulbecco’s Phosphate Buffered Saline (DPBS) at pH 7.4 (11% final DMSO concentration, 100 µL final volume). Following a 30 min incubation under slow agitation and away from light at room temperature, the plates were transferred to a PHERAstar microplate reader (BMG Labtech, Ortenberg, Germany) and the fluorescence polarisation was recorded. All measurements were recorded in triplicate.

HepG2 cells [6] = assay: Hepatotoxicity in HepG2 cell line (MTT); details: 24 h
Procedure: (§6) Thus, it is relevant to study the potential neurotoxicity and hepatotoxicity of the novel dual GSK3β inhibitors-Nrf2 inducers 5a–t.
as §4
(§7) HepG2 cells were cultured according to supplier indications in EMEM supplemented with 10 % heat-inactivated FBS, 100 µg/mL streptomycin and 100 units/mL penicillin. Cells were maintained at 37 °C in humidified atmosphere of 95 % air and 5 % CO2. For experimental procedures, cells were cultured in 96-well plates at density of 1x10^5 cells/well. Treatments were performed in 1% FBS medium unless other concentration was specified. Cells were used from 4 up to 13 passages.
as §5

GSK3β [7] = molecular target: T1, GSK3β; assay: GSK3β inhibition, luminescence Kinase-Glo assay; type: biochemical; details: for Ki: calculated from IC50 by Cheng-Prusoff equation, Km ATP 2.345 µM, read-out: Ki (apparent equilibrium dissociation constant); for IC50: four concentrations 0.1, 1, 10, 30 μM, ATP 1 μM, 1 h
Procedure: GSK3β inhibitory activity was evaluated using the method developed by Baki[66], with modifications. Compounds were dissolved in assay buffer, containing 40 mM Tris (pH 7.5), 20 mM MgCl2, 0.1 mg/ml BSA (bovine serum albumin) and 50 μM dithiothreitol (DTT) at the desired concentrations. Firstly, 10 μl of enzyme (10 ng) and 10 μl of each compound were mixed for 30 min. Then, 20 μl of a mixture of ATP (1 μM) and GSK3β peptidic substrate were added to each well. The mixture was incubated for 60 min at 30 °C. Thereafter, the remaining ATP concentration was measured with the Kinase-Glo system following instructions from the supplier. Luminescence was measured in an Orion II microplate luminometer (Berthold, Germany) as relative light units (RLU). […] IC50 values were calculated by non-linear regression analysis of individual concentration-response curves using GraphPad Prism 5.0 software (San Diego, CA, USA).
The ability of the compounds to inhibit GSK3β was evaluated using the method developed by Baki^9 with some modifications. The tested compounds were dissolved in assay buffer, containing 40 mM Tris (pH 7.5), 20 mM MgCl2, 0.1 mg/ml BSA (bovine serum albumin) and 50 µM dithiothreitol (DTT), to achieve final reaction concentrations of 0.1, 1, 10 and 30 µM. […] The GSK3β inhibition assay was performed in white 96-well plates, in duplicates. Firstly, 10 µl of enzyme (10 ng) were added to each well, followed by 10 µl of the compounds at the desired concentration. After 30 minutes, 20 µl of a mixture of ATP and GSK3β peptidic substrate were added to each well, achieving a final concentration of 1 µM of ATP and 25 of µM peptidic substrate. The mixture was incubated at 30 °C for 60 minutes. Once the reaction was finished, the remaining ATP concentration was measured by adding 40 µl/well of Kinase-Glo reagent. The luminescence was measured in an Orion II microplate luminometer (Berthold, Germany) as relative light units (RLU). The luminescence recorded is proportional to the amount of ATP present in each well.
Apparent Ki for each compound were calculated from GSK3β Km value for ATP, applying the Cheng-Prusoff equation^10,11 in its simplified form: Ki = IC50/(1+([S]/Km)), in which S refers to the ATP concentration and Km is the Michaelis constant of the substrate for GSK3β.

primary rat glial cells [8] = assay: Nitrite production in LPS-stimulated primary glial cultures (Griess); type: cell-based; details: Glial cell, 24 h pre-incubation, 18 h co-incubation with LPS 1 μg/mL, read-out: IC50 nitrite reduction
Text: as §1
Glial cells were pre-incubated with increasing concentrations of compounds for 24 hours. Then, treatments were removed and cells were incubated with LPS (1 μg/mL) alone or in presence of each compound at the desired concentration. Nitrite production was assessed 18 hours later by modified Griess assay. Briefly, samples (150 μl) were mixed with dapsone (75 μl) and NEDA (75 μl), and the mixture was incubated at room temperature for 5 min. Light absorption was measured at 550 nm in a microplate reader (Labtech, Offenburg, Germany). All data were normalized to basal nitrite production, considering this value as 100% of nitrite production. IC50 values were calculated from dose-response curves represented as percentage of nitrite production reduction induced by the different concentrations of each compound.
as §3
Primary rat glial cells were treated with compounds 5a-t at increasing concentrations (3, 10, 30 and 60 µM) during 24 h. Thereafter, treatments were removed and glial cells were co-incubated with increasing concentrations of each compound and LPS (1 µg/mL) for 18 h more. At the end of this period, supernatant was collected and the presence of nitrites was analyzed by the Griess method with modifications.^20 Each plate included non-treated cells as basal nitrite production, sulforaphane (SFN, 10 µM) as positive control. Briefly, samples (150 µl) were mixed with DAPSONE (75 µl) and NEDA (75 µl), and the mixture was incubated at room temperature for 5 min. Light absorption was measured at 550 nm in a microplate reader (Labtech, Offenburg, Germany). All data were normalized to basal nitrite production, considering this value as 100% of nitrite production. EC50 values were calculated from dose-response curves represented as percentage of nitrite production reduction induced by the different concentrations of each compound. Concentration response curves were fitted by non-linear regression analysis of individual concentration-response curves using GraphPad Prism software (San Diego, CA, USA). EC50 values are expressed as mean ± SEM of four different experiments in triplicate.

Nrf2 = assay: Nrf2-dependent luciferase reporter assay in AREc32 cell line; type: cell-based; details: AREc32 cells; for Nrf2 induction (luciferase activity), result in words: 24 h, compound 7 also at 60 and 100 μM; for EC50: Arec32, 24 h, read-out: CD (concentration required to double the luciferase reporter activity)
Procedure: Thereafter, we tested the ability of the compounds to induce the Nrf2 transcription factor. We used an Nrf2-dependent luciferase reporter assay in the AREc32 cell line[45]. Cells were cultured for 24 h and then treated with increasing concentrations of compounds 5a–t (0.3, 3, 10 and 30 μM), including the known inducer sulforaphane, containing an isothiocyanate motive as positive control.
AREc32 cells were plated in 96-well white plates (2 × 10^4 cells/well). After 24 h, cells were incubated with increasing concentrations of each compound in duplicate for 24 h. AREc32 cells express constitutively the plasmid pGL-8xARE that implements 8 copies of the EpRE sequences followed by luciferase reporter gen. Therefore, Nrf2 induction is related to the activation of EpRE sequences, expressing luciferase at the same extent as EpRE sequences are activated. The Luciferase Assay System (Promega E1500), was used according to provider protocol and luminescence was quantified in an Orion II microplate luminometer (Berthold, Germany). Fold induction of luciferase activity was normalized to basal conditions. Data are expressed as CD values, expressing the concentration required to double the luciferase activity. CD values are calculated from dose-response curves generated from fold induction of control conditions vs. inducer concentration and fitted by non-linear regression and data interpolated to 2-fold induction concentration.
Breast cancer cells stably transfected to express luciferase after EpRE sequences MCF-7/AREc32 named AREc32, were kindly provided by Dr. C. Roland Wolf (University of Dundee, UK).^14 AREc32 cells were maintained in DMEM with high glucose-glutamax, supplemented with 10 % FBS, 1 % penicillin-streptomycin (10,000 units), and geneticin (0.8 mg/ml G418) at 37 °C and in a 5 % CO2- air atmosphere.^14
AREc32 cells are constitutively transfected with the pGL-8xARE luciferase reporter gene, inserted after EpRE sequences. Thus, Nrf2 translocation to the nucleus induces the activation of the EpRE sequences, expressing their target phase II antioxidant genes, and expressing luciferase at the same extent.^15 AREc32 cells were plated in 96-well white plates (2X10^4 cells/well). After 24 h, cells were incubated with increasing concentrations of each compound in duplicate for 24 h (dissolved in DMSO to give a final 0.1 % vol/vol concentration of vehicle). Each plate included non-treated cells as basal luciferase expression and tBHQ (10 µM) as positive control. TBHQ is a potent Nrf2 inducer used as control in the development of the AREc32 cells.^14 Transfected clones are selected using G418. AREc32 cells express constitutively the plasmid pGL-8xARE that implements 8 copies of the EpRE sequences followed by a luciferase reporter gene. Therefore, the induction of Nrf2 is proportional to the activation of EpRE sequences, expressing luciferase at the same extent as EpRE sequences are activated. Luciferase production is then assessed by a bioluminescence assay. The Luciferase Assay System (Promega E1500), was used according to the Promega protocol and luminescence was quantified in an Orion II microplate luminometer (Berthold, Germany). Relative Light Units (RLU) were recorded for the contents of each well. Fold induction of luciferase activity was calculated by dividing the RLU obtained for the tests wells for each treatment by the average RLU obtained for the basal conditions. Data are expressed as CD values, expressing the concentration required to double the basal luciferase activity, used to quantify the Nrf2 induction potency. CD values are calculated from dose-response curves generated from fold induction of control conditions vs. inducer concentration and fitted by non-linear regression and data interpolated to value the 2-fold induction concentration, using GraphPad Prism software (San Diego, CA, USA).

HepG2 cells [9] = details: human, 24 h
Procedure: as §6, §4, §7, §5

SH-SY5Y cells [10] = details: human, 24 h
Procedure: as §4, §5

T1 sequence (P49841 whole entry): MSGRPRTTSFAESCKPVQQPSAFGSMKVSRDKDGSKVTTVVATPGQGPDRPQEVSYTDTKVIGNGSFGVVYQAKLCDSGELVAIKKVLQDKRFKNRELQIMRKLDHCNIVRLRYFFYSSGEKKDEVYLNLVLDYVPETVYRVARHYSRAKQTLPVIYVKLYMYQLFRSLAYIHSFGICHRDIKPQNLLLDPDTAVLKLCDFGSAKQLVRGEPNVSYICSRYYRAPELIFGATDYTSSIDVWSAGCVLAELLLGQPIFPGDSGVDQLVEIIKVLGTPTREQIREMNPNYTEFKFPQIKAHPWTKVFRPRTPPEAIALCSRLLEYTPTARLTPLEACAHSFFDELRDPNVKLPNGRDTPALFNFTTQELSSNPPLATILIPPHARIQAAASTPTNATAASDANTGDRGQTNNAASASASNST
T2 sequence (Q14145 321-609 limits assumed): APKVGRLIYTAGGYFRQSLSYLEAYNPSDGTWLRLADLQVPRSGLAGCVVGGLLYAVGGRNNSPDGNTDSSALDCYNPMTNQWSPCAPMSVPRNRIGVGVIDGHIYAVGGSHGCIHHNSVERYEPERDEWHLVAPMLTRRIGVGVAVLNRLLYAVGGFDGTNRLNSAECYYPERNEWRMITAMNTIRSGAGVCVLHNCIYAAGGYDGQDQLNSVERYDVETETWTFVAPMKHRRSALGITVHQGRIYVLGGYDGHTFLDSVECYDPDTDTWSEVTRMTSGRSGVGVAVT
T3 sequence (Q14145 321-609 limits assumed): as above

SMILES | IC50 (primary rat glial cells [4]) | Ki (GSK3β [7]) | IC50 (GSK3β [7]) | IC50 (primary rat glial cells [8]) | Nrf2 induction (luciferase activity), result in words (Nrf2) | HepG2 LD50 (HepG2 cells [9]) | SH-SY5Y LD50 (SH-SY5Y cells [10]) | EC50 (Nrf2) | also measured
N#Cc1c(N)nc2[nH]nc(N)c2c1-c1ccccc1 [Compound 2] |  |  |  |  |  |  |  |  | IC50 (GSK3β [1]): 1.5 µM
Cc1[nH]nc2c1C(c1ccncc1)C(C#N)=C(N)O2 (stereo not shown) [Compound 5t, 6-Amino-3-methyl-4-(pyridin-4-yl)-2,4-dihydropyrano[2,3-c]pyrazole-5-carbonitrile] | 37.8 ± 1.17 µM | 5.8 µM | 8.28 ± 0.7 µM | 28.8 ± 3.61 µM |  |  |  |  | Percentage of protection against okadaic acid toxicity (SH-SY5Y cells [2]): over 50%; SH-SY5Y LD50 (SH-SY5Y cells [3]): > 100 µM; ΔTm at 10 µM (Keap1 Kelch domain): -0.53 ± 0.28 °C; inhibition at 10 µM [5]: 1.24 ± 3.22%; HepG2 LD50 (HepG2 cells [6]): > 100 µM
Cc1[nH]nc2c1C(c1ccccc1)C(C#N)=C(N)N2 (stereo not shown) [Compound 7, 6-amino-3-methyl-4-phenyl-4,7-dihydro-2H-pyrazolo[3,4-b]pyridine-5-carbonitrile] |  | 13.1 µM | 18.6 ± 0.4 µM |  | completely unable to induce Nrf2 |  |  |  | 
COc1ccc2[nH]cc(CCNC(C)=O)c2c1 [Melatonin] |  |  |  |  |  | > 100 µM | > 100 µM |  | 
Cn1cc(C2=C(c3ccc(Cl)cc3Cl)C(=O)NC2=O)c2ccccc21 [SB216763, reference compound] |  |  |  |  | inability of the GSK3β inhibitor SB216763 to induce Nrf2 transcriptional activity | > 100 µM | > 100 µM | > 30 µM | 
C[S+]([O-])CCCCN=C=S (stereo not shown) [Sulforaphane] | 2.84 ± 0.55 µM |  |  | 1.4 ± 0.3 µM |  |  |  | 0.54 ± 0.07 µM | 
